“Also recorded” adds a separate entry of the source. Where two headings read alike, the source gives them in different places.
Experiments:
[1] = test system: human dermal fibroblast (HDF) primary cells; assay: H2O2-resistance in primary human dermal fibroblasts; assay type: cell-based; settings: YES/NO
C. elegans = C. elegans lifespan assays (liquid and plate); assay type: in vivo, Caenorhabditis elegans; settings: Caenorhabditis elegans, at 66 uM
[2] = test system: HTB-178 lung tumor cells (EGFR+, PIK3CA+, RB1−, TP53−); assay: Killing effects on HTB-178 tumor cells; assay type: cell-based, human; settings: Assay 1(y); at 10 uM, 1st
WI-38 cells [3] = settings: for Assay 1: H2O2-resistant: YES/NO, if NO, possibly due to repeated freezing/thawing of stocks; for EC50: read-out: Est. ED50, dose response 0.6-20 μM, H2O2-resistance
WI-38 cells [4] = assay: CdCl2 (cadmium) resistance assay; assay type: cell-based, human; settings: YES/NO; for Assay 2: Cadmium-resistant: * indicates partial
Protocol: (§1) For many stress conditions tested previously, one significant correlation to longevity is the cellular resistance to H2O2 or CdCl2. Applicants then tested these small molecules, at five different final concentrations (0.25 μM to 20 μM), for cadmium and MMS resistance in WI-38 cells.
(§2) The setups on 384-well plates and incubation times were the same as for H2O2 until the time of incubation with the stressors, which was 12 hours for both cadmium and MMS assays. Applicants tested several conditions, including conditions used to assay fibroblasts from long-lived animals (Salmon et al., 2005). These conditions produced better results with the positive controls (KEAP1 and AKT1 siRNAs) in the MMS assay. Thus, for MMS, the cells were shifted from growth media—OptiMEM+10% FBS, to DMEM (Gibco)+2% BSA (no serum) just before adding small molecules, which occurred 24 hours before MMS addition.
(§3) Isolated small molecules were tested for MMS and cadmium resistance twice in two independent assays. Each small molecule was analyzed at five different concentrations (0.25 μM to 20 μM final concentration), with technical triplicates for each dose. Data were analyzed using a global variance t-test.

WI-38 cells [5] = assay: MMS resistance assay; assay type: cell-based, human; settings: YES/NO
Protocol: as §1, §2, §3

human PARP1 = biological target: T1, human PARP1 (Homo sapiens, UniProt P09874); assay: PARP inhibitor assay (HT Fluorescent Homogeneous PARP Inhibition Assay Kit); assay type: biochemical; settings: 10 μM, in vitro
T1 construct: purchased Trevigen
Protocol: (§4) The assay was performed with the HT Fluorescent Homogeneous PARP Inhibition Assay Kit (Trevigen), following manufacturer's instructions. Briefly, nicotinamide adenine dinucleotide, human PARP1 and activated-DNA solution was added onto a 96-well plate. 54 repurchased small molecules, at 10 μM final concentration, were introduced onto the 96-well assay plate and incubated in a humid chamber at room temperature for 30 min in dark. Cycling mixture, with resazurin and cycling enzyme diaphorase, was then added and incubated further for 1 hr in dark. Reaction was terminated by adding the stopping buffer.
as §4, with “(Trevegen),” for “(Trevigen),”, “stopped” for “terminated”

NRF2 [6] = assay: in vitro; assay type: cell-based, human; settings: 10 uM; YES/NO
Protocol: For qPCR analysis, WI-38 cells were treated with small molecules (at 10 μM) (biological quadruplicates) for 24 hrs and processed for RNA isolation and reverse transcription (RT) with the Cells-to-Ct Kit (Life Technologies), following manufacturer's instructions. RT products were diluted with H2O and used for qPCR analysis on an ABI 7300 system (Life Technologies) (technical triplicates). Relative expression levels of target genes were normalized to the genes B2M, PPIA and GAPDH. To knock down the expression of FOXO3 or NRF2, WI-38 cells were transfected, using the RNAiMAX reagents (Life Technologies), with siRNA oligos (at 10 nM final concentration, 10 ml culture medium) for FOXO3 (Life Technologies) or NRF2 (Integrated DNA Technologies) on 10-cm petri dishes for 36 hrs, and then detached and aliquoted onto 96-well (for qPCR analysis) or 384-well plates (for H2O2-stress treatment). ˜24 hrs later, small molecules were introduced and incubated with cells for 24 hrs. Cells were then either processed with the Cells-to-Ct Kit to prepare RT products for qPCR analysis or subjected to H2O2 (700 μM) for 3 hrs and assayed for viability. The knockdown efficiency of FOXO3 or NRF2 was checked at 36 hrs post-transfection and at the end as well.
For qPCR analysis, WI-38 cells were treated with small molecules (at 10 μM) (biological quadruplicate) for 24 hrs and processed for RNA isolation and reverse transcription (RT) with the Cells-to-Ct Kit (Life Technologies), following manufacturer's instructions. RT products were diluted with H2O and used for qPCR analysis on a LightCycler 480 system (Roche) (technical triplicates). Relative expression levels of target genes were normalized to the genes B2M, PPIA and GAPDH. To knock down the expression of FOXO3 or NRF2, WI-38 cells were transfected with siRNA oligos (at 10 nM final concentration) for FOXO3 (Life Technologies) or NRF2 on 10-cm petri dish for 36 hrs, and then detached and aliquoted onto 96-well plates. ˜24 hrs later, small molecules were introduced and incubated with cells for 24 hrs. Cells were then processed with the Cells-to-Ct Kit to prepare RT products for qPCR analysis. The knockdown efficiency of FOXO3 or NRF2 was checked at 36 hrs post-transfection and at the end as well.
Of these, O15 and O20 consistently (in 3 of 3 experiments) required NRF2 to promote H2O2-resistance, and their resistance capacities were reduced by ˜90% on average upon NRF2 knockdown under conditions tested.

FOXO3 = assay: qPCR analysis of FOXO3-regulated genes; assay type: cell-based, human; settings: Homo sapiens, 24 h; Assay 10(m); at 10 uM, qPCR; read-out: Induction of FOXO3-regulated genes: SOD2 normalized fold-change
Outline: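 FOXO3 target-gene expression quantified by qPCR normalised to B2M, PPIA and GAPDH, in WI-38 cells after 24 h exposure to 10 μM compound. Some runs used cells first transfected 36 h with 10 nM FOXO3 or NRF2 siRNA and replated ~24 h before dosing.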

NRF2 [7] = assay: qPCR analysis of NRF2-regulated genes; assay type: cell-based, human; settings: Homo sapiens, 24 h; Assay 12(o); at 10 uM, qPCR; read-out: Induction of NRF2-regulated genes: GSTM1 normalized fold-change
Outline: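 Expression of HMOX1, NQO1, GCLC and GSTM1 measured by qPCR relative to B2M, PPIA and GAPDH. Cells were WI-38 fibroblasts exposed 24 hrs to 10 μM compound, with RNA and cDNA prepared via Cells-to-Ct. Where stated, cells were first transfected 36 hrs with FOXO3 or NRF2 siRNA at 10 nM.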

[8] = Assay 2(z), 1.0 × 10^9 bacteria/ml, wild type + FuDR (2012 July), read-out: Lifespan assay in liquid
[9] = Assay 3(aa), 2.5 × 10^9 bacteria/ml, wild type + FuDR, read-out: Lifespan assay in liquid
[10] = Assay 4(ab), 2.0 × 10^10 bacteria/ml, CF512 worms, no FuDR, read-out: Lifespan assay on plates

T1 sequence (P09874 whole entry): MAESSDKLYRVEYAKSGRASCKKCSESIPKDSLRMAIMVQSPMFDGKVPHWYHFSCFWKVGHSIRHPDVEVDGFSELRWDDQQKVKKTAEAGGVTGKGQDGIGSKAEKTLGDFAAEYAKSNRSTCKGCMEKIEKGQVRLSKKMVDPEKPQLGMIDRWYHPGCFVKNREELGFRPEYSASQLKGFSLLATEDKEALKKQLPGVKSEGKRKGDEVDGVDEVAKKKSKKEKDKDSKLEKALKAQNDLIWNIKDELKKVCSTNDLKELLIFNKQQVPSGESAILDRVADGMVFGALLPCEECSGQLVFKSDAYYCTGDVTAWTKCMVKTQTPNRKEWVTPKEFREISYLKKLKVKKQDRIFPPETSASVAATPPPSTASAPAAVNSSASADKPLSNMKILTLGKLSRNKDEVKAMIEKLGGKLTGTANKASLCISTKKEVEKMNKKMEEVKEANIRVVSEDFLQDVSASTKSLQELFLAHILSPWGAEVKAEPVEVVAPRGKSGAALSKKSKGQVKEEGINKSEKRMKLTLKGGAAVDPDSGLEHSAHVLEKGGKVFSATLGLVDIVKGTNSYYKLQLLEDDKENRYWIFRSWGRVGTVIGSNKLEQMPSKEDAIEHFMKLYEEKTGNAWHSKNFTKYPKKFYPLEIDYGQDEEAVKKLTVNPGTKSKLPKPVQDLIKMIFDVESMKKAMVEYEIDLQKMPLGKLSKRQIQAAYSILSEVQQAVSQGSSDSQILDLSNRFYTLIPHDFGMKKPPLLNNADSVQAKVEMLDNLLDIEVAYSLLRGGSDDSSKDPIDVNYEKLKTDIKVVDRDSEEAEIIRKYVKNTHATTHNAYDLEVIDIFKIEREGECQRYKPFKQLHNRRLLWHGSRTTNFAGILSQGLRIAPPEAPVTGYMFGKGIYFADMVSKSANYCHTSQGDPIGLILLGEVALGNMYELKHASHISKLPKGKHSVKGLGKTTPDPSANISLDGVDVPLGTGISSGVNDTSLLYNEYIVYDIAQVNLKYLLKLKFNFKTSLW

SMILES | Assay 6: H2O2-resistant, at 10 uM, human dermal fibroblast (HDF) primary cells [1] | ILS at 66 µM (C. elegans; [8]) | ILS at 66 µM (C. elegans; [9]) | ILS at 66 µM (C. elegans; [10]) | Potential killing effects on HTB-178 tumor cells, 1st [2] | Assay 1: H2O2-resistant (WI-38 cells [3]) | EC50 (WI-38 cells [3]) | Assay 4: H2O2- & Cd-resistant (WI-38 cells [4]) | Assay 2: Cadmium-resistant (WI-38 cells [4]) | Assay 3: MMS-resistant (WI-38 cells [5]; * indicates partial) | Assay 5: Triple resistant (WI-38 cells [5]; H2O2, cadmium and MMS) | Inhibition of PARP1 (human PARP1) | Assay 17: NRF2-dependency for H2O2-resistance (NRF2 [6]) | fold induction at 10 µM (FOXO3) | fold induction at 10 µM (NRF2 [7])
Oc1nnc(Cc2ccncc2)c2ccccc12 [Gr-2B] | YES | 2.5% | -1.1% | 14.1% | YES; | YES | 3.05 µM | YES | YES | YES | YES | inhibitors of PARP1; also recorded: PARP inhibitors | – | – | –
CC(COc1ccc2c(c1)OCO2)NC(=O)Cc1nnc(O)c2ccccc12 (stereo not shown) [Gr-2E] | YES | 3.3% | 4% | 9.7% | YES; | YES | 3.82 µM | YES | YES | – | – | PARP inhibitors | YES | – | –
O=C(CCCc1nnc2n3nc(-c4ccccc4)nc3c3ccccc3n12)N1CCOCC1 [O8] | YES | 6.6% | 3.8% | 10% | YES; | – | 20 µM | – | – | – | – | – | – | 1.07 | 0.82
